Assay results: PubChem BioAssay AID330 (DTP/NCI, 2004)
Values joined by “and” are separate entries in the source; they are usually repeats but may differ in a detail not shown here. Equal values may be shown once. Inconclusive results and toxic doses are left out. Rule for the calls: active = survival T/C of 150% or more; inactive = T/C below 125% in these data.

System: P388 leukemia ip, CD2F1 mice, survival T/C
Assay: NCI In Vivo Anticancer Drug Screen. Data for tumor model P388 Leukemia (intraperitoneal) in CD2F1 (CDF1) mice
Conditions: endpoint: median survival time, higher = longer survival
How it was run: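 Mice carrying the transplanted tumor received test compound or vehicle. Survival was recorded in each group, and the value is the treated-group measurement divided by that of the vehicle-treated control group.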

[1] = dose: 50.0 mg/kg/injection, schedule: Q01DX005 (ip), vehicle: saline with Tween-80
[2] = dose: 100.0 mg/kg/injection, schedule: Q01DX005 (ip), vehicle: saline with Tween-80
[3] = dose: 12.5 mg/kg/injection, schedule: Q01DX009 (ip), vehicle: Klucel (hydroxypropylcellulose) (HPC)
[4] = dose: 25.0 mg/kg/injection, schedule: Q01DX009 (ip), vehicle: Klucel (hydroxypropylcellulose) (HPC)
[5] = dose: 50.0 mg/kg/injection, schedule: Q01DX009 (ip), vehicle: Klucel (hydroxypropylcellulose) (HPC)
[6] = dose: 100.0 mg/kg/injection, schedule: Q01DX009 (ip), vehicle: Klucel (hydroxypropylcellulose) (HPC)
[7] = dose: 200.0 mg/kg/injection, schedule: Q01DX009 (ip), vehicle: Klucel (hydroxypropylcellulose) (HPC)
[8] = dose: 100.0 mg/kg/injection, schedule: Q01DX001 (ip), vehicle: saline with Tween-80
[9] = dose: 200.0 mg/kg/injection, schedule: Q01DX001 (ip), vehicle: saline with Tween-80
[10] = dose: 400.0 mg/kg/injection, schedule: Q01DX001 (ip), vehicle: saline with Tween-80
[11] = dose: 50.0 mg/kg/injection, schedule: Q01DX005 (ip), vehicle: Klucel (hydroxypropylcellulose) (HPC)
[12] = dose: 100.0 mg/kg/injection, schedule: Q01DX005 (ip), vehicle: Klucel (hydroxypropylcellulose) (HPC)
[13] = dose: 200.0 mg/kg/injection, schedule: Q01DX005 (ip), vehicle: Klucel (hydroxypropylcellulose) (HPC)
[14] = dose: 50.0 mg/kg/injection, schedule: Q01DX009 (ip), vehicle: saline with Tween-80

Measured: T/C

O=C(c1ccc(Cl)cc1)c1cc2c(ccc3ccccc32)oc1=O
inactive: dose: 6.25 mg/kg/injection, schedule: Q01DX009 (ip), vehicle: saline 91 % of control | dose: 12.5 mg/kg/injection, schedule: Q01DX009 (ip), vehicle: saline 95 % of control | dose: 25.0 mg/kg/injection, schedule: Q01DX009 (ip), vehicle: saline 104 % of control

Cc1cc(NCCCCN2CCOCC2)nc2ccc3ccccc3c12
inactive: [1] 101 % of control | [2] 105 % of control

Cc1ccc(S(=O)(=O)N/N=C(\C(=O)O)c2ccccc2)cc1
inactive: [3] 102 % of control | [4] 97 % of control | [5] 96 % of control | [6] 94 % of control | [7] 93 % of control

OCC1CCC2CCCCC2N1 (stereo unspecified)
inactive: dose: 50.0 mg/kg/injection, schedule: Q01DX005 (ip), vehicle: saline 104 % of control | dose: 100.0 mg/kg/injection, schedule: Q01DX005 (ip), vehicle: saline 102 % of control | dose: 200.0 mg/kg/injection, schedule: Q01DX005 (ip), vehicle: saline 101 % of control

CCn1c(=O)c2ncnnc2n(CC)c1=O
inactive: dose: 6.25 mg/kg/injection, schedule: Q01DX009 (ip), vehicle: Klucel (hydroxypropylcellulose) (HPC) 104 % of control | [3] 111 % of control

Cn1c(=O)ccc2c3ncccc3c(C(F)(F)F)cc21
inactive: [8] 99 % of control | [9] 100 % of control | [10] 101 % of control

C[C@]12CC[C@H]3[C@@H](CCC4=CC(=O)CC[C@@]43C)[C@@H]1CC[C@@H]2OC(=O)Cc1ccc(N(CCCl)CCCl)cc1
inactive: dose: 100.0 mg/kg/injection, schedule: Q04DX003 (ip), vehicle: saline with Tween-80 112 % of control | dose: 264.0 mg/kg/injection, schedule: Q04DX003 (ip), vehicle: saline with Tween-80 109 % of control

O=C1C(Cl)=C(NC(=O)C2CCCCC2)C(=O)C(Cl)=C1NC(=O)C1CCCCC1
inactive: dose: 25.0 mg/kg/injection, schedule: Q01DX005 (ip), vehicle: Klucel (hydroxypropylcellulose) (HPC) 90 % of control | [11] 90 % of control | [12] 88 % of control | [13] 89 % of control

C=Cn1ccnc1C.C=Cn1ccnc1C.CC(=O)CC(C)=O.CC(=O)CC(C)=O.[Co]
inactive: dose: 12.5 mg/kg/injection, schedule: Q04DX003 (ip), vehicle: saline 117 % of control and 95 % of control | dose: 25.0 mg/kg/injection, schedule: Q04DX003 (ip), vehicle: saline 102 % of control and 117 % of control | dose: 50.0 mg/kg/injection, schedule: Q04DX003 (ip), vehicle: saline 105 % of control and 123 % of control

CN(C)CCOc1cccc2c1C(=O)c1ccccc1C2=O
inactive: dose: 12.5 mg/kg/injection, schedule: Q01DX009 (ip), vehicle: water 113 % of control | dose: 25.0 mg/kg/injection, schedule: Q01DX009 (ip), vehicle: water 105 % of control | dose: 50.0 mg/kg/injection, schedule: Q01DX009 (ip), vehicle: water 107 % of control | dose: 100.0 mg/kg/injection, schedule: Q01DX009 (ip), vehicle: water 109 % of control

CC(/C=N\Nc1ccc(Cl)cc1)=N/NC(=S)NCC(C)C
inactive: [8] 103 % of control | [9] 100 % of control | [10] 94 % of control

Cn1c2nc3ccccc3c-2nc2ccccc21
inactive: dose: 1.56 mg/kg/injection, schedule: Q01DX009 (ip), vehicle: water 100 % of control | dose: 3.13 mg/kg/injection, schedule: Q01DX009 (ip), vehicle: water 92 % of control | dose: 6.25 mg/kg/injection, schedule: Q01DX009 (ip), vehicle: water 88 % of control | [3] 92 % of control | [4] 99 % of control | [5] 109 % of control | [6] 106 % of control | [7] 107 % of control

CN1CCC2(CC1)C(C#N)C(=O)NC(=O)C2C#N (stereo unspecified)
inactive: [1] 105 % of control | [2] 100 % of control | dose: 200.0 mg/kg/injection, schedule: Q01DX005 (ip), vehicle: saline with Tween-80 100 % of control

CC(C)N(/C=C/C(=O)c1ccccc1)C(C)C
inactive: dose: 12.5 mg/kg/injection, schedule: Q01DX009 (ip), vehicle: saline with Tween-80 99 % of control | dose: 25.0 mg/kg/injection, schedule: Q01DX009 (ip), vehicle: saline with Tween-80 100 % of control | [14] 94 % of control and 95 % of control

CSc1ccccc1[As](c1ccccc1)c1ccccc1
inactive: [5] 95 % of control | [6] 91 % of control | [7] 97 % of control

Cc1cc(C)c(CSc2cc(N)nc(N)c2N)c(C)c1
inactive: [5] 104 % of control | [6] 107 % of control

CCCCCCCCCCCCCC1=C(O)C(=O)C=C(O)C1=O
inactive: dose: 1.0 mg/kg/injection, schedule: Q01DX005 (ip), vehicle: Klucel (hydroxypropylcellulose) (HPC) 100 % of control | dose: 2.0 mg/kg/injection, schedule: Q01DX005 (ip), vehicle: Klucel (hydroxypropylcellulose) (HPC) 105 % of control | dose: 4.0 mg/kg/injection, schedule: Q01DX005 (ip), vehicle: Klucel (hydroxypropylcellulose) (HPC) 95 % of control | dose: 8.0 mg/kg/injection, schedule: Q01DX005 (ip), vehicle: Klucel (hydroxypropylcellulose) (HPC) 102 % of control | dose: 16.0 mg/kg/injection, schedule: Q01DX005 (ip), vehicle: Klucel (hydroxypropylcellulose) (HPC) 98 % of control

CC(=O)Oc1ccccc1C(=O)OCc1ccccc1
inactive: [11] 94 % of control | [12] 92 % of control | [13] 100 % of control

CCCCCNC(=S)N/N=C(\C)c1ccccn1
inactive: [3] 107 % of control | [4] 123 % of control | [5] 106 % of control

Nc1ccc2c(n1)NCC/C2=N\Nc1ccccc1
inactive: [14] 115 % of control | dose: 100.0 mg/kg/injection, schedule: Q01DX009 (ip), vehicle: saline with Tween-80 96 % of control | dose: 200.0 mg/kg/injection, schedule: Q01DX009 (ip), vehicle: saline with Tween-80 100 % of control

COn1nnc2cc(Cl)ccc21
inactive: dose: 100.0 mg/kg/injection, schedule: Q04DX002 (ip), vehicle: saline with Tween-80 107 % of control | dose: 200.0 mg/kg/injection, schedule: Q04DX002 (ip), vehicle: saline with Tween-80 98 % of control | dose: 400.0 mg/kg/injection, schedule: Q04DX002 (ip), vehicle: saline with Tween-80 98 % of control

Oc1c(-c2ccccc2)cc(-[n+]2c(-c3ccccc3)cc(-c3ccccc3)cc2-c2ccccc2)cc1-c1ccccc1
inactive: dose: 0.38 mg/kg/injection, schedule: Q01DX009 (ip), vehicle: saline with Tween-80 88 % of control | dose: 0.75 mg/kg/injection, schedule: Q01DX009 (ip), vehicle: saline with Tween-80 106 % of control | dose: 1.5 mg/kg/injection, schedule: Q01DX009 (ip), vehicle: saline with Tween-80 121 % of control | dose: 3.0 mg/kg/injection, schedule: Q01DX009 (ip), vehicle: saline with Tween-80 122 % of control

O=[N+]([O-])c1ccc(S(=O)/N=C/c2ccccc2)c([N+](=O)[O-])c1 (stereo unspecified)
inactive: [3] 119 % of control | [4] 118 % of control

CCCCCCCCCCCC1=C(O)C(=O)C(CC2=C(O)C(=O)C(CCCCCCCCCCC)=C(O)C2=O)=C(O)C1=O
inactive: dose: 25.0 mg/kg/injection, schedule: Q01DX005 (ip), vehicle: Klucel + Tween-80 97 % of control | [11] 86 % of control | dose: 50.0 mg/kg/injection, schedule: Q01DX005 (ip), vehicle: Klucel + Tween-80 91 % of control | dose: 100.0 mg/kg/injection, schedule: Q01DX005 (ip), vehicle: Klucel + Tween-80 91 % of control | [13] 89 % of control
